From patent US11470844B2, “Vespidae wasp repellent” (KINP CO., LTD, priority 2015, dated 2022)

How the values were obtained:
[1] = tested on: P. jokahamae jokahamae Radoszkowski worker; assay: Spray on worker collecting Zelkova sap; type: in vivo, Polistes jokahamae jokahamae Radoszkowski
Description: The experiment involving a worker group of Polistes jokahamae jokahamae Radoszkowski on the exterior wall of a nest found in the campus of Faculty of Agriculture, Kochi University, located on 200 Otsu, Monobe, Nankoku City, Kochi Prefecture, was conducted on Jul. 13, 2015, and the experiment involving a worker of P. jokahamae jokahamae Radoszkowski which collected sap bled from sucking mark by adult Cryptotympana facialis of Zelkova tree stem planted in a private house in Fuseishi-cho, Takamatsu City, Kagawa Prefecture was conducted on July 19 to 22, 2015. In addition, the experiment involving a worker group of P. chinensis antennalis Pe'rez on the exterior wall of a nest found on a branch of a cheesewood planted at a bank of Noda pond located at Fuseishi-cho, Takamatsu City, Kagawa Prefecture was conducted on Jul. 30, 2015.
The experiment was conducted in accordance with the above-described Example 1(1) involving a Vespa mandarinia worker, distilled water as a control example spray and benzyl alcohol as a test liquid example spray were sequentially sprayed on a test object group or a test object worker by using a sprayer, and the behavior from immediately after spraying up to 1 minute later was respectively recorded.

[2] = tested on: Vespa analis insularis (Fabricius) worker; assay: Black ball nest disturbance, Experiment 1; type: in vivo
Description: The experiment was conducted with utilizing a nest of Vespa analis insularis (Fabricius) built under an awning of a private house in Iida-cho Takamatsu City on Sep. 9, 2015.
A black ball was hung on the tip of a fishing rod having a length of 11 m, and distilled water was sprayed on the entire surface of the black ball. While the surface of the nest was tapped with the tip of the fishing rod once every about 10 seconds, the worker's action against the black ball was taken and recorded with a video camera for 5 minutes. When the nest was hit, the black ball was in close proximity to the nest as the black ball was about to touch the nest, and when the nest was not hit, the black ball was kept still in the air about 50 cm away from the nest surface. The thus recorded video footage was replayed, and the number of worker which flew to and alighted on the hemisphere surface of the black ball for attack was counted. Similar experiments were conducted with respect to the black ball prepared by spraying benzyl alcohol on the entire surface of a new black ball as “Test liquid example 1” and the black ball prepared by spraying benzyl alcohol on the entire surface of the control example black ball on which alarm pheromone was adsorbed by the worker's attack as “Test liquid example 2”. In addition, a picture of the video footage 234 seconds after the start of the nest disturbance is shown as FIG. 3. FIG. 3A is an image of the control example that distilled water was used, FIG. 3B is an image of the Test liquid example 1, and FIG. 3C is an image of the Test liquid example 2.

[3] = tested on: Vespa analis insularis (Fabricius) nest; assay: Spraying on nest surface, philopatry and homing, Experiment 2; type: in vivo
Excerpt: The inventors investigated the worker's philopatry and homing circumstance to the nest as follows. After the above-described experiment 1, benzyl alcohol was intermittently sprayed three times on the entire surface of the same nest of Vespa analis insularis (Fabricius) by using a sprayer equipped with a nozzle having a length of 1.5 m. An adult wasp on the nest surface, worker entering and leaving the nest holes and worker coming close to the nest were shot with a video camera. The experiment was started at 14:01:30 and finished at 14:10. The numbers of the adult wasp on the nest surface and in the nest were counted immediately after the experiment. The number of adult wasp in the nest was counted by inserting the whole nest in a paper bag, sealing the paper bag, and then deconstructing the nest.

[4] = after first spray, 14:01:30 to 14:02:20
[5] = after second spray, 14:02:20 to 14:04:30
[6] = after third spray, 14:04:30 to 14:10:00

`OCc1ccccc1` [Benzyl alcohol, benzyl alcohol] was tested, and the “Effective (number of worker)” value ([1]; 10 workers collecting sap) was 10, the “No response (number of worker)” value ([1]; 10 workers collecting sap) was 0 and the “time of flapping behavior before the worker flew away” value ([1]; 10 workers, or without flapping) was no more than 1 s. The “number of worker alighted on hemisphere surface of black ball for attack” value (shortened to “number of worker alighted”) ([2]; 30 s, benzyl alcohol on ball with adsorbed alarm pheromone) was 0, the “number of worker alighted” value ([2]; 30 s, benzyl alcohol on new black ball) was 0 and the “number of worker alighted” value ([2]; 60 s, benzyl alcohol on ball with adsorbed alarm pheromone) was 1. The “number of worker alighted” value ([2]; 60 s, benzyl alcohol on new black ball) was 0, the “number of worker alighted” value ([2]; 90 s, benzyl alcohol on ball with adsorbed alarm pheromone) was 0 and the “number of worker alighted” value ([2]; 90 s, benzyl alcohol on new black ball) was 2. The “number of worker alighted” value ([2]; 120 s, benzyl alcohol on ball with adsorbed alarm pheromone) was 0, the “number of worker alighted” value ([2]; 120 s, benzyl alcohol on new black ball) was 1 and the “number of worker alighted” value ([2]; 150 s, benzyl alcohol on ball with adsorbed alarm pheromone) was 0. The “number of worker alighted” value ([2]; 150 s, benzyl alcohol on new black ball) was 0, the “number of worker alighted” value ([2]; 180 s, benzyl alcohol on ball with adsorbed alarm pheromone) was 0 and the “number of worker alighted” value ([2]; 180 s, benzyl alcohol on new black ball) was 0. For the same compound, the “number of worker alighted” value ([2]; 210 s, benzyl alcohol on ball with adsorbed alarm pheromone) was 0, the “number of worker alighted” value ([2]; 210 s, benzyl alcohol on new black ball) was 0 and the “number of worker alighted” value ([2]; 240 s, benzyl alcohol on ball with adsorbed alarm pheromone) was 0. The “number of worker alighted” value ([2]; 240 s, benzyl alcohol on new black ball) was 0, the “number of worker alighted” value ([2]; 270 s, benzyl alcohol on ball with adsorbed alarm pheromone) was 0 and the “number of worker alighted” value ([2]; 270 s, benzyl alcohol on new black ball) was 0. For the same compound, the “number of worker alighted” value ([2]; 300 s, benzyl alcohol on ball with adsorbed alarm pheromone) was 0, the “number of worker alighted” value ([2]; 300 s, benzyl alcohol on new black ball) was 0 and the repellent effect ([2]; in vivo) was “strong repellent effect”. For the same compound, the “adult wasps on nest surface and in nest at the end of the experiment” value ([3]; 14:10, after three sprays) was “All of the adult wasps got away from the nest”, the Entered nest [3, 4] was 5 and the “Flew away from nest” value [3, 4] was 15. For the same compound, the “Flew to and alighted on nest surface and then flew away” value (“Flew to and alighted” for short) [3, 4] was 1, the “Flew to and came close to nest surface and then flew away” value (shortened to “Flew to and came close”) [3, 4] was 2 and the Entered nest [3, 5] was 0. For the same compound, the “Flew away from nest” value [3, 5] was 10, the “Flew to and alighted” value [3, 5] was 2 and the “Flew to and came close” value [3, 5] was 6. For the same compound, the Entered nest [3, 6] was 0, the “Flew away from nest” value [3, 6] was 2 and the “Flew to and alighted” value [3, 6] was 4. For the same compound, the “Flew to and came close” value [3, 6] was 55.
